The values below come from patent publication US8969335B2, “Benzonitrile derivatives as kinase inhibitors” (MERCK PATENT GmbH, priority 2011, dated 2015).

Molecules are shown by their SMILES.

Assay [1] has as its target IKKε (Homo sapiens (Human), UniProt Q14164). Description: IKKε kinase assay (384-well flashplate assay). The class given is biochemical. As to conditions: 1 nM IKKε, 10 μM ATP, 30° C., 2 hours; read-out: IKKε enzyme assay IC50. Here is the method: Test for the Inhibition of IKKε
IKKε—Kinase Assay (IKKepsilon)
The kinase assay is performed as 384-well flashplate assay (for example for Topcount measurement).
1 nM IKKε, 800 nM biotinylated IκBα(19-42) peptide (Biotin-C6-C6-[…]) and 10 μM ATP (spiked with 0.3 μCi of ^33P-ATP/well) are incubated at 30° C. for 2 hours in a total volume of 50 μl (10 mM MOPS, 10 mM Mg acetate, 0.1 mM EGTA, 1 mM dithiothreitol, 0.02% of Brij35, 0.1% of BSA, 0.1% of BioStab, pH 7.5) with or without test compound. The reaction is stopped using 25 μl of 200 mM EDTA. After 30 min at room temperature, the liquid is removed, and each well is washed three times with 100 μl of 0.9% sodium chloride solution. Non-specific reaction is determined in the presence of 3 μM MSC2119074 (BX-795). The radioactivity is measured using a Topcount (PerkinElmer). The results (for example IC50 values) are calculated using program tools provided by the IT Department (for example AssayExplorer, Symyx).

Assay [2] concerns TBK1 + IKKε (phospho-IRF3 @ Ser 386, MDA-MB-468 cells). Briefly: TBK1 + IKKε cell assay: dose response inhibition of phospho-IRF3 @ Ser 386 in MDA-MB-468 cells. Type of assay: cell-based. The following applies: Homo sapiens, poly(I:C) stimulation, nuclear phospho-IRF3, read-out: TBK1 + IKKε cell assay IC50.
Method: Day 1: MDA-MB-468 cells are detached using HyQ-Tase, counted and sown into a 384-well plate with TC surface and clear bottom in a density of 10,000 cells per well in a total volume of 35 μl of complete medium. Alternatively, the cells are sown directly from frozen glass vials.
Day 2: The cells are pre-treated with inhibitor compounds for 1 h prior to poly(I:C) stimulation. After incubation for 2 h with poly(I:C), the cells are fixed in (para)formaldehyde (PFA) and permeabilised using methanol (MeOH). The cells are then blocked and incubated with an anti-pIRF3 antibody at 4° C. overnight.
Day 3: The primary antibody is washed off, an AlexaFluor488-conjugated secondary antibody is added, the cells are contrast-stained with propidium iodide, followed by image acquisition on an IMX ultra-high content reader.
Assay [3] addresses TANK binding kinase (TBK1) (Homo sapiens (Human), UniProt Q9UHD2). Description: TBK1 enzyme assay (384-well flashplate kinase assay). Type of assay: biochemical. The following applies: 0.6 nM TBK1, 10 μM ATP, 30° C., 120 min.
Method: Test for the Inhibition of TBK1
0.6 nM TANK binding kinase (TBK1), 800 nM biotinylated MELK-derived peptide (Biotin-Ah-Ah-[sequence]) and 10 μM ATP (spiked with 0.25 μCi of ^33P-ATP/well) are incubated at 30° C. for 120 min in a total volume of 50 μl (10 mM MOPS, 10 mM Mg acetate, 0.1 mM EGTA, 1 mM DTT, 0.02% of Brij35, 0.1% of BSA, pH 7.5) with or without test compound. The reaction is stopped with 25 μl of 200 mM EDTA. After 30 min at room temperature, the liquid is removed, and each well is washed three times with 100 μl of 0.9% sodium chloride solution. Non-specific reaction is measured in the presence of 100 nM staurosporine. The radioactivity is measured in a Topcount (PerkinElmer).

TANK binding kinase (TBK1), sequence (Q9UHD2 whole entry): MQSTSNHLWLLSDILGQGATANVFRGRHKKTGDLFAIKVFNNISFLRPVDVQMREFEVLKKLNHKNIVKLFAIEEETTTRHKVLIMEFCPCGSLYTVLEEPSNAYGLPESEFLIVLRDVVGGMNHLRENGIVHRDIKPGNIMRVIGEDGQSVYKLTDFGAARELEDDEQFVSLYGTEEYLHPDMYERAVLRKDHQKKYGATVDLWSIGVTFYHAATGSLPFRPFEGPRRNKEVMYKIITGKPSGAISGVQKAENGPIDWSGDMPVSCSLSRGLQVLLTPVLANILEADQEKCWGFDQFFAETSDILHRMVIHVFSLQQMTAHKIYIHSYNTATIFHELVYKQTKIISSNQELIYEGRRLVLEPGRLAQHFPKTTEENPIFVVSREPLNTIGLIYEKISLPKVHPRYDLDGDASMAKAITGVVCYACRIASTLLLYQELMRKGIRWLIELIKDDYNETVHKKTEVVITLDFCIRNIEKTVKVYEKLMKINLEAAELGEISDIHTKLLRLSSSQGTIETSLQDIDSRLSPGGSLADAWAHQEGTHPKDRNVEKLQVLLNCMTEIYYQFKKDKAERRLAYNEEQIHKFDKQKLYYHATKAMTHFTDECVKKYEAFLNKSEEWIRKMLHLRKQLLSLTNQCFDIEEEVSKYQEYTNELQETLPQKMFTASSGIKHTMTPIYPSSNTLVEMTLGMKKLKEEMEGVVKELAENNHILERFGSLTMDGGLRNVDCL
IKKε, sequence (Q14164 whole entry): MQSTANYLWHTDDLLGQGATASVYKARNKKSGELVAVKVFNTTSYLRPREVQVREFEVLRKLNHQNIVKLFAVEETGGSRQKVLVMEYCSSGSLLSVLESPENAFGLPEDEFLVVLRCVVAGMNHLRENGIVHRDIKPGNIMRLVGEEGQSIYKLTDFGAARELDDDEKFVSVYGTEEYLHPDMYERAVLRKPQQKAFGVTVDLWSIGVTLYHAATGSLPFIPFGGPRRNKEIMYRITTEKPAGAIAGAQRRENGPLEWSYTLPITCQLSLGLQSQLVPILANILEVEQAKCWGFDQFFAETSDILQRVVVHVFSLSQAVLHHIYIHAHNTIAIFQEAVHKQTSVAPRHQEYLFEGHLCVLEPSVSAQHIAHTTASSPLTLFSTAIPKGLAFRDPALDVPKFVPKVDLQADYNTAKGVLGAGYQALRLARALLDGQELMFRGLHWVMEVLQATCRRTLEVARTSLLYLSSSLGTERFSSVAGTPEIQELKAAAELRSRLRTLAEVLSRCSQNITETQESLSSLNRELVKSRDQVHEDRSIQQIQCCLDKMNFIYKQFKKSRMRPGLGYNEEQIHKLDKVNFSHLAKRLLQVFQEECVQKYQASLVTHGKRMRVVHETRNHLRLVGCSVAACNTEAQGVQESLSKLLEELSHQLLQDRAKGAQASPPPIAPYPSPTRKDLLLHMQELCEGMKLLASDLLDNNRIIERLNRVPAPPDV

The term IC50 denotes the concentration that inhibits the measured activity by half. Regarding `N#Cc1cc(-c2ccnc(Nc3cc(C4CCNCC4)ccn3)c2)ccc1OC1CCOCC1` [Compound A74, 5-[2-(1′,2′,3′,4′,5′,6′-hexahydro-[4,4′]bipyridinyl-2-ylamino)pyridin-4-yl]-2-(tetrahydropyran-4-yloxy)benzonitrile], the half-inhibitory concentration (IC50) in assay [1] came out at 1 nM; in assay [2] it was 1600 nM; in assay [3] it was 2 nM.
In the same order, the values of `N#Cc1cc(-c2ccnc(Nc3cnn(CCC4CCNCC4)c3)c2)ccc1OC1CCOCC1` [Compound A21, 5-{2-[1-(2-Piperidin-4-ylethyl)-1H-pyrazol-4-ylamino]pyridin-4-yl}-2-(tetrahydropyran-4-yloxy)benzonitrile] are 37 nM, 5300 nM and 70 nM.
As for `N#Cc1cc(-c2ccnc(Nc3ccc(N4CCOCC4)cn3)c2)ccc1OCC1CC1` [Compound A108, 2-cyclopropylmethoxy-5-[2-(5-morpholin-4-ylpyridin-2-ylamino)pyridin-4-yl]benzonitrile], the IC50 was 45 nM in assay [1], 1200 nM in assay [2] and 23 nM in assay [3].
In the same order, the values of `N#Cc1cc(-c2ccnc(Nc3cnn(CCN4CCCC4)c3)n2)ccc1OC1CCOCC1` [Compound A83, 5-{2-[1-(2-pyrrolidin-1-ylethyl)-1H-pyrazol-4-ylamino]pyrimidin-4-yl}-2-(tetrahydropyran-4-yloxy)benzonitrile] are 88 nM, 5300 nM and 60 nM.
As for `N#Cc1cc(-c2ccnc(Nc3ccc(CO)cn3)c2)ccc1OCC1CC1` [Compound A106, 2-cyclopropylmethoxy-5-[2-(5-hydroxymethylpyridin-2-ylamino)pyridin-4-yl]benzonitrile], the concentration for half-maximal inhibition (IC50) in assay [1] stood at 46 nM; in assay [2], 4100 nM; in assay [3], 41 nM.
On the same counts, the results for `N#Cc1cc(-c2ccnc(Nc3cnn(CCN4CCOCC4)c3)c2)ccc1OC1CCOCC1` [Compound A22, 5-{2-[1-(2-Morpholin-4-ylethyl)-1H-pyrazol-4-ylamino]pyridin-4-yl}-2-(tetrahydropyran-4-yloxy)benzonitrile] are 150 nM, 9600 nM and 100 nM.
On the same counts, the results for `COCCCn1cc(Nc2cc(-c3ccc(OC4CCOCC4)c(C#N)c3)ccn2)cn1` [Compound A23, 5-{2-[1-(3-Methoxypropyl)-1H-pyrazol-4-ylamino]pyridin-4-yl}-2-(tetrahydropyran-4-yloxy)benzonitrile] are 160 nM, 7800 nM and 120 nM.
`N#Cc1cc(-c2ccnc(Nc3cnc(C4CCNCC4)cn3)c2)ccc1OC1CCOCC1` [Compound A72, 5-[2-(5-piperidin-4-ylpyrazin-2-ylamino)pyridin-4-yl]-2-(tetrahydropyran-4-yloxy)benzonitrile]: the figures for the IC50 in assay [1], in assay [2] and in assay [3] were 7 nM, 840 nM and 10 nM, respectively.
For `COc1nc(Nc2nccc(-c3ccc(OC4CCOCC4)c(C#N)c3)n2)ccc1C1=CCNCC1` [Compound A76, 5-[2-(2-methoxy-1′,2′,3′,6′-tetrahydro[3,4′]bipyridinyl-6-ylamino)pyrimidin-4-yl]-2-(tetrahydropyran-4-yloxy)benzonitrile], the IC50 in assay [1] was found to be 21 nM; in assay [2], 6100 nM; in assay [3], 27 nM.
On the same counts, the results for `CN(C)Cc1ccnc(Nc2cc(-c3ccc(OC4CCOCC4)c(C#N)c3)ccn2)c1` [Compound A81, 5-[2-(4-dimethyl-aminomethylpyridin-2-ylamino)pyridin-4-yl]-2-(tetrahydropyran-4-yloxy)benzonitrile] are 10 nM, 350 nM and 14 nM.
`N#Cc1cc(-c2ccnc(Nc3ccc(N4CCOCC4)nn3)c2)ccc1OC1CCOCC1` [Compound A90, 5-[2-(6-morpholin-4-ylpyridazin-3-ylamino)pyridin-4-yl]-2-(tetrahydropyran-4-yloxy)benzonitrile]: the IC50 in assay [1] amounted to 98 nM; in assay [2] it was 1300 nM; in assay [3], 88 nM.
